These results are taken from article PMC10418113 (bioRxiv, 2023).

Each structure is given as a SMILES string.

Test [1] deals with T1, DLD (E3 subunit of purified porcine PDHC) (Sus scrofa, UniProt P09623).
T1 sequence (P09623 36-509): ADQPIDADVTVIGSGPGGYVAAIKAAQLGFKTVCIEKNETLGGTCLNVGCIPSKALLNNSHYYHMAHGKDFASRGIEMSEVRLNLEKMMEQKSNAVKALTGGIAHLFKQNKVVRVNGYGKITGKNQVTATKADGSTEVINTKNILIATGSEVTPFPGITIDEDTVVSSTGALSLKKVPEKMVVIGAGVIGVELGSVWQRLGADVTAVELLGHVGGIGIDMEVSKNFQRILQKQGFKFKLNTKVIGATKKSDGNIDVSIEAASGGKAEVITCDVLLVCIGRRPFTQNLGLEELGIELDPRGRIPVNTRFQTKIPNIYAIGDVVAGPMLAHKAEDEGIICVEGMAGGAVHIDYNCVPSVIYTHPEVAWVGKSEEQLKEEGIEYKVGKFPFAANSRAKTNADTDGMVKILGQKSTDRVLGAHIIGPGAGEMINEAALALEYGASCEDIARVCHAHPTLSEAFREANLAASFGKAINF
The test can be described thus: diaphorase activity, NBT-formazan at […] nm and in-gel. The format is biochemical. As to conditions: 0.1 mg/mL NADH, 0.2 mg/mL NBT, 50 mM potassium phosphate pH 7.0.

Test [2] has as its target BCKDC (E2 subunit DBT) (Mus musculus, UniProt P53395). The test can be described thus: BCKDC activity of matrix lysate after preincubation, isovaleryl-CoA by LCMS. The format is biochemical. As to conditions: read-out: % inhibition at 0.1 μM.

Chain of BCKDC (E2 subunit DBT) (P53395 62-482): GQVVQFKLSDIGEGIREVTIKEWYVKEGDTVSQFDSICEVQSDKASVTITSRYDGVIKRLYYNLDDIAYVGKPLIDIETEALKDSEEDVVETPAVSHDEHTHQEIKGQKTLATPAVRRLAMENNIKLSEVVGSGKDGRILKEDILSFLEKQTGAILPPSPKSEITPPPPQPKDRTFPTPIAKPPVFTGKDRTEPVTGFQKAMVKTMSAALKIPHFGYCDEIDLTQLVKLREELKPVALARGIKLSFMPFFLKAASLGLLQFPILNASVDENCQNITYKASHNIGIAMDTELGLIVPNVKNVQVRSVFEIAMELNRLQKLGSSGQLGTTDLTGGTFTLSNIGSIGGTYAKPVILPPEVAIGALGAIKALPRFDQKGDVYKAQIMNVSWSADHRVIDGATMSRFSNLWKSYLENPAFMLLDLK
Chain of BCKDC (E2 subunit DBT) (P50136 43-442 partner): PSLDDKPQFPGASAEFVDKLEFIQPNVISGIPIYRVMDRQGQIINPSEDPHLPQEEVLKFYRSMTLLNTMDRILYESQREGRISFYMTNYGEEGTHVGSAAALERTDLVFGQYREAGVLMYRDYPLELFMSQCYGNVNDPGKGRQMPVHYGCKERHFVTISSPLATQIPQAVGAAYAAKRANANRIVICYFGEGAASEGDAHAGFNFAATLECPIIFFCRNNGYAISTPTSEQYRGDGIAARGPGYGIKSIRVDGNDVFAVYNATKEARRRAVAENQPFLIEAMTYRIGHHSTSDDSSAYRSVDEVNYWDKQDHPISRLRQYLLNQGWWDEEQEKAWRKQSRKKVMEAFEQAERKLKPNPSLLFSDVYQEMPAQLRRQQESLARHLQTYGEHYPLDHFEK
Chain of BCKDC (E2 subunit DBT) (Q6P3A8 49-390 partner): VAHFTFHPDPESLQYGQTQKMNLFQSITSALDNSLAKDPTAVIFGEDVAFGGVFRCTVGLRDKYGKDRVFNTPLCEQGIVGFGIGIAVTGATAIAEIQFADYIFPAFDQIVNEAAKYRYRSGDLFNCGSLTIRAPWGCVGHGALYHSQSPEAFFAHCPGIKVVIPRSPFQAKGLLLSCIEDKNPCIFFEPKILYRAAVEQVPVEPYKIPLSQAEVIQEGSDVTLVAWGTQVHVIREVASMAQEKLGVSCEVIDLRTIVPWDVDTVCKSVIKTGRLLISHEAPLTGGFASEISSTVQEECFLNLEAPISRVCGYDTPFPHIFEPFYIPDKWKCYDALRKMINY
Chain of BCKDC (E2 subunit DBT) (O08749 36-509 partner): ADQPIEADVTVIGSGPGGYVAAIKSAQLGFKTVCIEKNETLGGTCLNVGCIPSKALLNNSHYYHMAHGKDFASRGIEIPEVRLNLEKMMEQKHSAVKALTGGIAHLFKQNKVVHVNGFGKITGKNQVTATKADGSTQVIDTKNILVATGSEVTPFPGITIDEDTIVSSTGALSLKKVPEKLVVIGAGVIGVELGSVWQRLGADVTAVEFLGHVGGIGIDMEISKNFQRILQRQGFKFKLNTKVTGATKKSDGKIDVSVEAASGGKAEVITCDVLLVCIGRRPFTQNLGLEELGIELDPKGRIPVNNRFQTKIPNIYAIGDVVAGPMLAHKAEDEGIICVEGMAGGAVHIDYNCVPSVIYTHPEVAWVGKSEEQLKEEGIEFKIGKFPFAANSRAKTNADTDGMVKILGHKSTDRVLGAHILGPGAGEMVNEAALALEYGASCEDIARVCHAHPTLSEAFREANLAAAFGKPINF

With `NC(=O)C1=CN([C@@H]2O[C@H](COP(=O)(O)OP(=O)(O)OC[C@H]3O[C@@H](n4cnc5c(N)ncnc54)[C@H](O)[C@@H]3O)[C@@H](O)[C@H]2O)C=CC1` [NADH], in test [1], the “diaphorase activity, NBT-formazan at 568 nm and in-gel” value is recorded as “As a blank control, the same amount of mitochondria lysate was mixed with assay buffer without NADH”.

Broadly, the inhibition is how much of the control response was suppressed. Consider `CC(C)(COP(=O)(O)OP(=O)(O)OC[C@H]1O[C@@H](n2cnc3c(N)ncnc32)[C@H](O)[C@@H]1OP(=O)(O)O)[C@@H](O)C(=O)NCCC(=O)NCCSN=O` [SNO-CoA], for which the inhibition at 0.1 µM in test [2] is over 50%.
